Source: patent publication US20240115582A1, “USE OF SODIUM TRANS-[TETRACHLORIDOBIS(1H-INDAZOLE)RUTHENATE(III)] FOR TREATING CANCERS” (Bold Therapeutics Inc., priority 2020, published 2024)

How the values were obtained:
BRAFMT CRC cells [1] = experiment: Combination of BOLD-100 with ATRi, apoptosis (PARP/cleaved caspase-3 WB, caspase 3/7 activity, PI flow cytometry); assay type: cell-based; conditions: for cell death following BOLD-100 treatment: co-treated with BOLD-100 for 48 h, BRAFMT CRC; for apoptosis when combined with BOLD-100: in particular in BRAFMT CRC cells
Method: HT-29 and VACO432 CRC cells were co-treated with BOLD-100 and ATRi AZD6738, M4344 or Berzosertib for 48 h and apoptosis was assessed using WB analyses for PARP and cleaved caspase-3 (A) and caspase 3/7 activity assays (B). C. BRAFMT CRC cells VACO432, COL0205 and LIM2405 were co-treated with BOLD-100 and ATRi AZD6738, M4344 or Berzosertib for 48 h and apoptosis assessed by PI flow cytometry.

BRAFMT CRC cells [2] = experiment: Combination of BOLD-100 with ATRi, cell viability (CellTitre-Glo, clonogenic survival); assay type: cell-based; conditions: in particular in BRAFMT CRC cells
Method: FDA approved drug screen targeting the significant pathways deregulated following BOLD-100 treatment in BRAFMT CRC. BRAFMT HT-29 (A) and VACO432 (B) cells were co-treated with BOLD-100, IC10, IC20, IC30 doses of 60 FDA approved drugs alone or in combination with BOLD-100 for 72 h and cell viability determined using the CellTitre-Glo® assay. Robust z-scores were calculated for combination treatment and normalized to effect of 50 μM BOLD-100. Combinations with r-Z score of <−1 were considered to enhance sensitivity to BOLD-100 treatment. Cell viability for combined BOLD-100/AZD6738 treatment was graphed using GraphPad Prism 8.0. C. Clonogenic survival assays in BRAFMT LIM2405, VACO432 and RKO CRC cells following co-treatment with BOLD-100 and AZD6738 for 14 days. Survival was graphed using GraphPad Prism 8.0.

BRAFMT CRC cells [3] = experiment: Cell death / caspase 3/7 activity after BOLD-100; assay type: cell-based
Method: (§1) Methods: Cell Titre Glo, Annexin V/PI high content screening, Flow Cytometry, Western blotting, Caspase 8, 3/7 activity, ROS-Glo^a H2O2, RNAi assays were used. RNA seq and bioinformatic analyses were performed on BOLD-100-treated BRAFMT/WT CRC cells, using the Illumina Novoseq platform and Reactome Pathway Analysis.
A.: Positive hits for primary siRNA screen against 178 target TSG. sRNA was carried out for 24 h, followed by treatment with BOLD-100 for 48 h. Forty-Six targets were identified, resulting in either increased sensitivity or resistance to BOLD-100 (based on robust z-score ±1). B. Positive hits from secondary siRNA screen using 2 additional siRNA sequences against 46 targets. C. CRC cells were pre-incubated with DMSO or 20 μM of the pan-caspase inhibitor, z-VAD-FMK for 3 h followed by treatment with BOLD-100 for 48 h following which, apoptosis was assessed by WB analyses for PARP (top) and caspase-3/7 activity assay (bottom). […] Apoptosis was assessed by WB analysis for PARP (left) and caspase-3/7 activity (right). […] Apoptosis was determined by WB for PARP (left) and caspase-3/7 activity levels (right).
A. BRAFMT CRC cells were treated with BOLD-100 for the indicated time and ATR/KAP1/CKH1/CHK2 expression/activity measured by WB. B. CRC cells were co-treated with BOLD-100 and AZD6738 for 48 h and phosphorylation/expression of ATR/KAP1 and the downstream kinases measured. […]

[4] = system: pATR^T1989, pChk1^S345 and γH2AX; experiment: Western blotting of ATR/CHK1 DNA damage signalling; assay type: cell-based
Method: as §1
(§2) A. BRAFMT CRC cells were treated with BOLD-100 for the indicated time and ATR/KAP1/CKH1/CHK2 expression/activity measured by WB. B. CRC cells were co-treated with BOLD-100 and AZD6738 for 48 h and phosphorylation/expression of ATR/KAP1 and the downstream kinases measured. C. CRC cells were treated with BOLD-100 for the indicated times and generation of ROS measured using a ROS-Glo™ H2O2 assay. D. and E. WB and caspase 3/7 activity in cells pre-treated with NAC for 3 h followed by treatment with BOLD-100 for an additional 24h.

BRAFMT, MSS CRC cells = experiment: CellTitre-Glo and Annexin V/PI sensitivity studies; assay type: cell-based; conditions: isogenic paired and non-isogenic V600E BRAFMT and BRAFWT panel
Method: Materials: A panel of isogenic paired and non-isogenic V600E BRAFMT and BRAFWT cells were used. BOLD-100, a ruthenium-based small molecule inhibitor, was obtained from BOLD Therapeutics. A FDA approved compound library was used.
as §1
As illustrated in FIG. 2. BRAFMT, CMS1 CRC cells show increased sensitivity to treatment with BOLD-100. Upper: A. BRAFMT V600E HT-29 cells were treated with BOLD-100 for the indicated time and GRP78, CHOP and PARP levels determined by Western blotting (WB). B. HT-29 cells were treated with BOLD-100 for the indicated times and HSPA5, ATF4 and DDIT3 mRNA levels quantified using RT-PCR. Raw values were normalised to the expression of housekeeping genes ACTB and GAPDH and analysed using the ΔΔCT method. Lower: A. CRC cells were treated with increasing concentrations of BOLD-100 and cell viability determined using CellTitre-Glo® assay. IC50 was calculated using Prism software package. B. CRC cells were treated with BOLD-100 for 48 h. Apoptosis was assessed using Annexin V/propidium iodide (PI) staining by high-content screening. […]

GRP78, CHOP = experiment: Western blotting of UPR markers after BOLD-100; assay type: cell-based; conditions: treatment with BOLD-100
Method: as §1
As illustrated in FIG. 2. BRAFMT, CMS1 CRC cells show increased sensitivity to treatment with BOLD-100. Upper: A. BRAFMT V600E HT-29 cells were treated with BOLD-100 for the indicated time and GRP78, CHOP and PARP levels determined by Western blotting (WB). B. HT-29 cells were treated with BOLD-100 for the indicated times and HSPA5, ATF4 and DDIT3 mRNA levels quantified using RT-PCR. Raw values were normalised to the expression of housekeeping genes ACTB and GAPDH and analysed using the ΔΔCT method. Lower: A. CRC cells were treated with increasing concentrations of BOLD-100 and cell viability determined using CellTitre-Glo® assay. IC50 was calculated using Prism software package. B. CRC cells were treated with BOLD-100 for 48 h. Apoptosis was assessed using Annexin V/propidium iodide (PI) staining by high-content screening. The graph indicates the percentage of positive stained cells following treatment with 100 μM BOLD-100. Mean of 3 independent experiments is shown.

BRAFMT CRC cells [5] = experiment: ROS-Glo H2O2 assay; assay type: cell-based
Method: as §1, §2

Degradation in water = assay type: physicochemical
Method: One skilled in the art will recognize that limiting this degradation reaction would be advantageous to obtaining the highest purity product. […] In one aspect of the invention, the sodium trans-[tetrachlorobis(1H-indazole)ruthenate (III)] solution is cooled to 4° C. during the formulation process. In another aspect of the invention, the sodium trans-[tetrachlorobis(1H-indazole)ruthenate (III)] solution is cooled to 2-8° C. during the formulation process. In another aspect of the invention, the sodium trans-[tetrachlorobis(1H-indazole)ruthenate (III)] solution is cooled to 2-15° C. during the formulation process.

SMILES: CNCc1ccc(-c2cc(-c3nc(-c4ccc(S(=O)(=O)C(C)C)cc4)cnc3N)on2)cc1 [Berzosertib]
- cell death following BOLD-100 treatment (BRAFMT CRC cells [1]): increase cell death

SMILES: C[C@@H]1COCCN1c1cc(C2([S@](C)(=N)=O)CC2)nc(-c2cc[nH]c3nccc2-3)n1 [AZD6738]
- interaction when combined with BOLD-100 (BRAFMT CRC cells [2]): strong synergy
- cell death following BOLD-100 treatment (BRAFMT CRC cells [1]): increase cell death
- apoptosis when combined with BOLD-100 (BRAFMT CRC cells [1]): apoptosis

SMILES: Nc1nn2cc(F)cnc2c1C(=O)Nc1cncc(F)c1N1CCC(C(=O)N2CCN(C3COC3)CC2)CC1 [M4344]
- interaction when combined with BOLD-100 (BRAFMT CRC cells [2]): strong synergy
- cell death following BOLD-100 treatment (BRAFMT CRC cells [1]): increase cell death
- apoptosis when combined with BOLD-100 (BRAFMT CRC cells [1]): apoptosis

SMILES: CC(=O)N[C@@H](CS)C(=O)O [NAC]
- effect on cell death following BOLD-100 treatment (BRAFMT CRC cells [3]; ROS scavenger): rescued cell death
- effect on BOLD-100 induced CHOP, pATR^T1989, pChk1^S345 and γH2AX levels ([4]; ROS scavenger, BRAFMT CRC cells): abrogated

SMILES: [Cl][Ru]([Cl])([Cl])[Cl].[Na+].c1ccc2[nH]ncc2c1.c1ccc2[nH]ncc2c1 [BOLD-100, Sodium trans-[tetrachloridobis(1H-indazole)ruthenate(III)]]
- IC50 (BRAFMT, MSS CRC cells): 9.25 to 31 µM
- GRP78 levels (GRP78, CHOP): early decreases
- expression levels of the endoplasmic reticulum stress protein CHOP (GRP78, CHOP): increases
- type of cell death (BRAFMT CRC cells [3]): caspase-8 dependent cell death
- pATR^T1989, pChk1^S345 and γH2AX expression levels ([4]; BRAFMT cells): rapid and potent increases
- ROS (BRAFMT CRC cells [5]): acute increases in ROS
- stability in water (Degradation in water): can degrade in water to Compound A
